Measured values reported in EPA's ToxRefDB 2.

Legend:
rat [1] = conditions: Prenatal developmental toxicity study, wistar, Dermal, Topical, dose end: 16 GD
rat [2] = conditions: Prenatal developmental toxicity study; wistar; Oral; Gavage/Intubation; dose end: 15 GD; group: developmental; developmental / developmental malformation / bone / incomplete ossification + developmental / developmental malformation / bone / …
rat [3] = conditions: Developmental neurotoxicity study, sprague dawley, Oral, Gavage/Intubation, dose end: 97 PND, group: cannot be grouped
rat [4] = conditions: Subchronic oral toxicity in rodents, sprague dawley, Gavage/Intubation, dose end: 12 week, group: systemic, systemic / clinical chemistry / alkaline phosphatase (alp/alk) / alkaline phosphatase (alp/alk) + systemic / clinical chemistry / albumin / …
rat [5] = conditions: Prenatal developmental toxicity study, sprague dawley, Injection, Subcutaneous, dose end: 8 GD
rat [6] = conditions: Subchronic oral toxicity in rodents, sprague dawley, Gavage/Intubation, dose end: 13 week, group: systemic
rabbit = conditions: Prenatal developmental toxicity study, new zealand white, Dermal, Topical, dose end: 19 GD
mouse = conditions: Sub-acute repeat dose toxicity, other, Oral, Gavage/Intubation, dose end: 21 day, group: systemic
rat [7] = conditions: Developmental neurotoxicity study; sprague dawley; Oral; Gavage/Intubation; dose end: 90 PND; group: cannot be grouped; developmental / developmental landmark / eye opening / eye opening + reproductive / offspring survival early / dead fetuses / dead fetuses…
[8] = group: developmental, developmental / developmental malformation / bone / supernumerary + systemic / in life observation / body weight / fetal weight
[9] = group: maternal, systemic / in life observation / body weight / body weight + systemic / in life observation / body weight / body weight gain + systemic / in…
[10] = group: maternal, systemic / in life observation / clinical signs / [other] + systemic / in life observation / clinical signs / erythema + systemic / in life …
[11] = systemic / in life observation / body weight / offspring (pup) weight gain
[12] = group: developmental, developmental / developmental malformation / general / crown-rump length + systemic / in life observation / body weight / fetal weight
[13] = group: maternal, reproductive / reproductive performance / resorptions / resorptions + systemic / in life observation / body weight / body weight + systemic…
[14] = systemic / clinical chemistry / alkaline phosphatase (alp/alk) / alkaline phosphatase (alp/alk) + systemic / hematology / erythrocyte (rbc) …
[15] = group: developmental, systemic / in life observation / body weight / fetal weight
[16] = systemic / clinical chemistry / alkaline phosphatase (alp/alk) / alkaline phosphatase (alp/alk) + systemic / pathology microscopic / bone / …
[17] = systemic / hematology / hematocrit (hct) / hematocrit (hct) + systemic / hematology / hemoglobin (hgb) / hemoglobin (hgb)

CC1=C(/C=C/C(C)=C/C=C/C(C)=C/C(=O)O)C(C)(C)CCC1 [trans-Retinoic acid]
LEL (rat [1]; group: developmental, developmental / developmental malformation / bone / supernumerary): 2.5 mg/kg/day
LOAEL (rat [1]; [8]): > 20 mg/kg/day
NEL (rat [1]; [8]): 1 mg/kg/day
NOAEL (rat [1]; [8]): ≥ 20 mg/kg/day
LOAEL (rat [1]; [9]): > 20 mg/kg/day
NOAEL (rat [1]; [9]): ≥ 20 mg/kg/day
LEL (rat [1]; [10]): 1 mg/kg/day
NEL (rat [1]; [10]): < 1 mg/kg/day
LEL (rat [2]): 5 mg/kg/day
LOAEL (rat [2]): > 10 mg/kg/day
NEL (rat [2]): 2.5 mg/kg/day
NOAEL (rat [2]): ≥ 10 mg/kg/day
LOAEL (rat [3]; [11]): > 6 mg/kg/day
NOAEL (rat [3]; [11]): ≥ 6 mg/kg/day
LEL (rat [3]; systemic / in life observation / clinical signs / impaired foot spread): 2.5 mg/kg/day
LEL (rat [4]): 0.5 mg/kg/day
LOAEL (rat [4]): > 5 mg/kg/day
NEL (rat [4]): < 0.5 mg/kg/day
NOAEL (rat [4]): ≥ 5 mg/kg/day
LEL (rat [5]; [12]): 48.1 mg/kg/day
LOAEL (rat [5]; [12]): > 144 mg/kg/day
NEL (rat [5]; [12]): 24 mg/kg/day
NOAEL (rat [5]; [12]): ≥ 144 mg/kg/day
LOAEL (rat [5]; [13]): > 144 mg/kg/day
NEL (rat [5]; [13]): 48.1 mg/kg/day
NOAEL (rat [5]; [13]): ≥ 144 mg/kg/day
LEL (rat [5]; group: maternal, systemic / in life observation / body weight / body weight + systemic / in life observation / clinical signs / abnormal gait + systemic / in…): 96.1 mg/kg/day
LOAEL (rat [6]; [14]): > 50 mg/kg/day
NEL (rat [6]; [14]): 1 mg/kg/day
NOAEL (rat [6]; [14]): ≥ 50 mg/kg/day
LEL (rat [6]; systemic / clinical chemistry / alkaline phosphatase (alp/alk) / alkaline phosphatase (alp/alk) + systemic / pathology microscopic / lymph …): 4 mg/kg/day
LEL (rabbit; [15]): 0.5 mg/kg/day
LOAEL (rabbit; [15]): > 0.5 mg/kg/day
NEL (rabbit; [15]): 0.05 mg/kg/day
NOAEL (rabbit; [15]): ≥ 0.5 mg/kg/day
LEL (rabbit; [9]): 0.05 mg/kg/day
LOAEL (rabbit; [9]): > 0.5 mg/kg/day
NEL (rabbit; [9]): < 0.05 mg/kg/day
NOAEL (rabbit; [9]): ≥ 0.5 mg/kg/day
LOAEL (mouse; [16]): > 100 mg/kg/day
NOAEL (mouse; [16]): ≥ 100 mg/kg/day
LEL (mouse; [17]): 3 mg/kg/day
NEL (mouse; [17]): < 3 mg/kg/day
LEL (rat [7]): 2.5 mg/kg/day
LOAEL (rat [7]): > 2.5 mg/kg/day
NEL (rat [7]): < 2.5 mg/kg/day
NOAEL (rat [7]): ≥ 2.5 mg/kg/day
